Reference: paper PMC4575908 (Chemistry & biology, 2015)
“And” between values parts separate entries of the source, which are not always exact repeats. Equal entries are not always repeated. Where two headings read alike, the source gives them in different places.

Legend:
[1] = system: CPT-11-induced diarrhea in mice; settings: CPT-11 50 mg/kg i.p. without inhibitor
patients = settings: cited from earlier work

CCc1c2c(nc3ccc(OC(=O)N4CCC(N5CCCCC5)CC4)cc13)-c1cc3c(c(=O)n1C2)COC(=O)[C@]3(O)CC [CPT-11, Irinotecan]
mice with bloody diarrhea ([1]; day 8, 50 mg/kg): ~ 25% and 25%
mice with bloody diarrhea ([1]; day 9, 50 mg/kg): ~ 60% and 60%
mice with bloody diarrhea ([1]; day 10): 100%
patients showing grade 3–4 diarrhea (patients; human, in vivo): 31%
patients experiencing diarrhea (patients; ref Food and Drug Administration package insert for irinotecan): up to 88%
